Several values for one entry are separate records, joined by “and”; a condition that tells them apart may be missing. Identical values can stand only once.
Experiment: xn = mol fraction of the nth substance listed

Brc1ccccc1 + c1ccccc1
101 kPa
Conditions	viscosity [mPa·s]
298.15 K, x1 = 0.0867	0.636
298.15 K, x1 = 0.116	0.649
298.15 K, x1 = 0.8	0.96
303.15 K, x1 = 0.086	0.61
303.15 K, x1 = 0.176	0.653
303.15 K, x1 = 0.268	0.7
303.15 K, x1 = 0.362	0.742
303.15 K, x1 = 0.46	0.785
303.15 K, x1 = 0.561	0.827
303.15 K, x1 = 0.665	0.867
303.15 K, x1 = 0.774	0.909
303.15 K, x1 = 0.884	0.951
308.15 K, x1 = 0.0867	0.558
308.15 K, x1 = 0.116	0.568
318.15 K, x1 = 0.0867	0.492
318.15 K, x1 = 0.116	0.504
323.15 K, x1 = 0.0867	0.461
323.15 K, x1 = 0.116	0.47
323.15 K, x1 = 0.8	0.711

BrCCBr + CN1CCC[C@H]1c1cccnc1
viscosity [mPa·s], 101.33 kPa
Conditions	x2 = 0.121	x2 = 0.2341	x2 = 0.3736	x2 = 0.4915	x2 = 0.613	x2 = 0.7575	x2 = 0.8734
298.15 K	1.765	1.939	2.233	2.523	2.804	3.055	3.341
323.15 K	1.2	1.383	1.466	1.599	1.714	1.838	1.884

CC(F)(F)Cl + FC(F)Cl
Conditions	viscosity [mPa·s]
293.15 K, 101 kPa, x2 = 0.115	0.2343
293.15 K, 101 kPa, x2 = 0.331	0.2197
293.15 K, 101 kPa, x2 = 0.54	0.2009
293.15 K, 101 kPa, x2 = 0.635	0.2028
293.15 K, 101 kPa, x2 = 0.913	0.177
293.25 K, 101 kPa, x2 = 0.438	0.2153
293.35 K, 101 kPa, x2 = 0.822	0.189
293.73 K, 101.13 kPa, x2 = 0.526	0.195
312.35 K, 101 kPa, x2 = 0.731	0.1511
312.55 K, 101 kPa, x2 = 0.115	0.1951
312.75 K, 101 kPa, x2 = 0.913	0.1394
312.85 K, 101 kPa, x2 = 0.635	0.1609
312.95 K, 101 kPa, x2 = 0.331	0.1754
312.95 K, 101 kPa, x2 = 0.54	0.1615
313.15 K, 101 kPa, x2 = 0.822	0.1495
313.25 K, 101 kPa, x2 = 0.438	0.1749

CSCC[C@H](N)C(=O)O + O
viscosity, 101 kPa
Conditions	293.15 K	298.15 K	303.15 K	308.15 K	313.15 K	318.15 K
x1 = 0.00045	1.011 mPa·s and 1.009 mPa·s	0.8992 mPa·s and 0.8967 mPa·s	0.8057 mPa·s and 0.8039 mPa·s	0.727 mPa·s and 0.7258 mPa·s	0.6602 mPa·s and 0.6603 mPa·s	0.6044 mPa·s
x1 = 0.0009	1.019 mPa·s and 1.016 mPa·s	0.9063 mPa·s and 0.903 mPa·s	0.8126 mPa·s and 0.8103 mPa·s	0.734 mPa·s and 0.7327 mPa·s	0.6671 mPa·s and 0.6678 mPa·s	–
x1 = 0.0013	1.023 mPa·s	0.9098 mPa·s	0.8169 mPa·s	0.7392 mPa·s	0.6743 mPa·s	–
x1 = 0.00135	–	0.9131 mPa·s	0.8195 mPa·s	0.7408 mPa·s	0.6735 mPa·s	0.6178 mPa·s
x1 = 0.001798	–	–	0.8264 mPa·s	0.7475 mPa·s	–	0.6244 mPa·s
x1 = 0.0018	–	0.9165 mPa·s	0.8232 mPa·s	0.745 mPa·s	0.6815 mPa·s	–
x1 = 0.002247	1.039 mPa·s	0.9266 mPa·s	0.833 mPa·s	0.754 mPa·s	0.687 mPa·s	0.631 mPa·s
x1 = 0.00225	1.037 mPa·s	0.9232 mPa·s	0.8295 mPa·s	0.7524 mPa·s	0.688 mPa·s	–
x1 = 0.00269	1.044 mPa·s	0.9295 mPa·s	0.8368 mPa·s	0.7588 mPa·s	0.6951 mPa·s	–
x1 = 0.002693	1.046 mPa·s	0.9335 mPa·s	0.8396 mPa·s	0.7607 mPa·s	0.6936 mPa·s	0.6373 mPa·s
x1 = 0.00314	1.05 mPa·s	0.936 mPa·s	0.8435 mPa·s	0.7657 mPa·s	0.7019 mPa·s	–
x1 = 0.003143	1.053 mPa·s	0.9403 mPa·s	0.8465 mPa·s	0.7675 mPa·s	0.6999 mPa·s	0.6436 mPa·s
x1 = 0.003588	1.06 mPa·s	0.9474 mPa·s	0.8535 mPa·s	0.7743 mPa·s	0.7063 mPa·s	0.6495 mPa·s
x1 = 0.00359	1.057 mPa·s	0.9426 mPa·s	0.85 mPa·s	0.7724 mPa·s	0.7087 mPa·s	–

Brc1ccccc1 + O=[N+]([O-])c1ccccc1
viscosity [mPa·s], 101 kPa
Conditions	x2 = 0.117	x2 = 0.225	x2 = 0.345	x2 = 0.464	x2 = 0.554	x2 = 0.676	x2 = 0.79	x2 = 0.887
298.15 K	1.106	1.164	1.227	1.296	1.352	1.465	1.556	1.673
303.15 K	1.036	1.075	1.13	1.209	1.246	1.355	1.459	1.551
308.15 K	0.973	1.015	1.06	1.117	1.173	1.251	1.345	1.423

C=CC[P+](c1ccccc1)(c1ccccc1)c1ccccc1.[Br-] + OCC(O)CO
101 kPa, x1 = 0.0667
Conditions	viscosity [mPa·s]
296.84 K	1037
302.15 K	679.9
306.82 K	475.9
312.25 K	314.4

From the CheMixHub viscosity set
